In US12152270B2, “Neurotransmitter transport in probiotics” (Iowa State University Research Foundation, Inc., priority 2017, dated 2024):

Tests used:
[1] = system: OCT-like uptake in L. salivarius biofilms; test: ASP+ fluorophore uptake (OCT-like) in L. salivarius biofilms; format: cell-based, Lactobacillus salivarius; conditions: for inhibition of ASP+ uptake: early and late biofilms
Method: (§1) At the start of the assay, 0.2 ml of stationary phase overnight bacterial growth was inoculated into 9.8 ml of pre-warmed MRS, thoroughly mixed, and 0.2 ml aliquots added to individual wells of Corning flat clear-bottomed 96 well microplates (product #3904, Corning, Inc., Corning, NY, USA). Plates were then placed into a 37° C. humidified incubator. Following static incubation for either 6 or 24 hours, plates were removed from the incubator and the well supernatants were gently removed leaving the bacterial biofilm intact on the bottom surface of the individual clear plate wells. Subsequently, the PMAT-specific fluorophore IDT307 (Molecular Devices) or the OCT-specific fluorophore ASP^+ (Sigma-Aldrich) dissolved in IMDM and pre-warmed to 37° C. was gently added to appropriate wells (added along the well side so as not to disturb the biofilm). The plate was immediately placed into a BioTek Synergy H1 reader (Winooski, VT, USA) and measured using Gen5 software at the time intervals shown in the FIGS. 4-7. All assays were done at 37° C. unless otherwise noted and reads were performed as bottom fluorescence in relative fluorescence units (RFU). For IDT307, the chemical and masking dye were supplied pre-measured and the amount of IMDM used as a diluent was the same as indicated for the use of HBSS. […] Drug Metab Dispos. 2015; 43(11):1773-80, herein incorporated by reference, with the minor modification that the fluorophore/masking dye combination were prepared as follows: 100 μl of a 2 mg ASP^+ stock solution per ml of distilled water was first added to 9.9 ml of IMDM and mixed, followed by the addition of 10 μl of a 10 mM Trypan blue solution. The excitation/emission wavelengths used for IDT307 and ASP^+, respectively, were 440 nm/520 nm and 475 nm/609 nm.
(§2) Plates were prepared as above in Example 4 and following 6 hours (FIGS. 8A and B for PMAT and OCT respectively) or 24 hours (FIGS. 8C and D for PMAT and OCT respectively) of incubation the media was gently removed and replaced with 100 μl of pre-warmed IMDM media with or without different concentrations of fluoxetine. The concentrations of fluoxetine were 0.3125 mM, 0.625 mM, 1.25 mM, or 2.5 mM. The plate was then incubated at 37° C. for 30 minutes. Following incubation, 100 μl of pre-warmed fluorophore was added to the appropriate wells. The plate was then immediate placed into the fluorescence reader and measured at 37° C.
(§3) Two other antidepressant drugs that are chemically unrelated to fluoxetine, duloxetine and amitriptyline, were tested for their action on PMAT- and OCT-like functionalities in Lactobacilli to determine if they may also be used as inhibitors. Cells were grown in 96-well plates for 24 hours to allow for biofilm formation as above. […] IDT307 or ASP^+ was then used to measure the effects of each antidepressant drug on the cells ability to take up the fluorophore.

[2] = system: OCT-like uptake in L. reuteri; test: ASP+ fluorophore uptake (OCT-like) in L. reuteri; format: cell-based, Lactobacillus reuteri; conditions: for attenuation of ASP+ fluorophore uptake: 2 mg/ml, 24 hour biofilm
Text: The fluorophore ASP^+[4-(4-(diethylamino)styryl)-N-methylpyridinium iodide] was obtained from Sigma Chemical Company (Sigma #D4318) and used as described in Duan et al., Drug Metabolism and Disposition, volume 43, pages 1773-1780, 2015 (herein incorporated by reference) with a slight modification in the ratio of ASP^+ and Trypan blue used.
To verify if OCT-like uptake was responsible for the influx of ASP^+ in Lactobacilli, L. reuteri was pre-treated with D-22, an OCT inhibitor. In brief, Lactobacilli reuteri (obtained from American Type Culture Collection, #23272) were grown overnight at 37° C. in an aerobic environment in flat-bottomed 96-well plates in MRS medium. Following overnight incubation, the medium in each well was carefully removed in order to not overtly disturb the biofilm and a final concentration of 20 μM D-22 dissolved in IMDM or control medium was added. The plate was then incubated for 20 minutes at 37° C. in an aerobic environment. Next, ASP^+ fluorophore dissolved in IMDM was added and the plate was then placed into a BioTek Synergy H1 plate reader at 37° C. and read continuously for a total of 6 hours.
as §3

[3] = system: PMAT-like uptake in L. salivarius biofilms; test: IDT307 fluorophore uptake (PMAT-like) in L. salivarius biofilms; format: cell-based, Lactobacillus salivarius; conditions: for attenuation of IDT307 fluorophore uptake: 1 mg/ml, 24 hour biofilm; for uptake of IDT307-associated fluorescence: 100 μM; for inhibition of IDT307 uptake: early and late biofilms
Text: For measurement of PMAT-like function, the IDT307 fluorophore-based Neurotransmitter Uptake Assay Kit (product #R8173, Molecular Devices, Sunnyvale, CA, USA) was used with modification. As it is intended for studies with mammalian cells, the kit recommends the use of phenol red-free Hank's Balanced Salt Solution (HBSS). Phenol red-free Iscove's Modified Dulbecco's Medium (IMDM; product #21056-023, Life Technologies, Carlsbad, CA, USA) was substituted for HBSS. […] IMDM was selected as it is a nutrient-rich, protein-free medium used in tissue culture that allows for robust growth of a wide variety of bacterial species in the absence of any protein additives common to most microbiology media.
as §1, §2, §3

recombinant OCTs = conditions: 20 μM, HEK293 embryonic kidney cells; cited from earlier work
recombinant PMAT = biological target: T1, recombinant PMAT (Homo sapiens, UniProt Q7RTT9); conditions: 20 μM, HEK293 embryonic kidney cells; cited from earlier work
T1 construct: host or cells: HEK293 embryonic kidney cells (transfected, in the earlier report)
T1 sequence (Q7RTT9 1-530): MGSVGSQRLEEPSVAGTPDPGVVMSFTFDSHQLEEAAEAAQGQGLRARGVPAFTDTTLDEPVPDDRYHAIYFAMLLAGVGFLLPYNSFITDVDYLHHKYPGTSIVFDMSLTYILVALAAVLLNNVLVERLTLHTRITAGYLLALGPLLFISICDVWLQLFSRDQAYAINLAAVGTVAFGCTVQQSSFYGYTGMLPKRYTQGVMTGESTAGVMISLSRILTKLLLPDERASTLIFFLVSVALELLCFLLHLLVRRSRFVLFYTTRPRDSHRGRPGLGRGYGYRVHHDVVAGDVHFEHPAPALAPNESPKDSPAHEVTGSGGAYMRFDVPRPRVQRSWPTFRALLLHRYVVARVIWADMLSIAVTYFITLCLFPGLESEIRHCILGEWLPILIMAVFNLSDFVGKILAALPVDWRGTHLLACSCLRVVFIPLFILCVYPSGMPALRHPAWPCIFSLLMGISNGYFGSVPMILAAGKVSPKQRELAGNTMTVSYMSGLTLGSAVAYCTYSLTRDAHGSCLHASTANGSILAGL

[4] = system: PMAT-like uptake in L. reuteri; conditions: 2 mg/ml, 24 hour biofilm
Method: as §3

[5] = system: microbial communities of mice; test: In vivo administration of fluoxetine, 16S rRNA sequencing of microbial communities; conditions: male mice, oral, daily for 28 days
Method: Fluoxetine was administered on a daily basis by the oral route to male mice for 28 days in order to determine if any modulation in microbial communities could be obtained.
To classify the microbial communities, the genomes of isolated bacteria were sequenced and compared. Genomic DNA isolation was obtained using the PowerSoil DNA Isolation Kit (MoBio, Carlsbad, CA) on cecal and fecal samples. Assays were performed in accordance with the manufacturer's protocol with the following modifications: samples were incubated at 70° C. for 10 minutes immediately after addition of the C1 solution and the initial vortex step was extended to 20 minutes to thoroughly homogenize the samples. The purified bacterial genomic DNA extracts were quantified using a Qubit 2.0 Fluorometer (Life Technologies, Carlsbad, CA), and stored at −20° C. in 10 mM Tris buffer. For Illumina sequencing, bacterial genomic DNA was amplified using the Earth Microbiome Project barcoded primer set, adapted for the Illumina HiSeq2000 and MiSeq by adding nine extra bases in the adapter region of the forward amplification primer that support paired-end sequencing. The V4 region of the 16S rRNA gene (Illumina, 515F-806R) was amplified with region-specific primers that included the Illumina flowcell adapter sequences. The reverse amplification primer also contained a twelve base barcode sequence that supported pooling of up to 2,167 different samples in each lane. Each 25 μl PCR reaction contained 12 µl of MoBio PCR Water (Certified DNA-Free), 10 μl of 5 Prime HotMasterMix (1×), 1 μl of Forward Primer ([…], […]), 1 μl Golay Barcode Tagged Reverse Primer (5 μM concentration, […]), and […]. The conditions for PCR were as follows: 94° C. for 3 minutes to denature the DNA, with 35 cycles at 94° C. for 45 s, 50° C. for 60 s, and 72° C. for 90 s; with a final extension of 10 min at 72° C. to ensure complete amplification. The PCR amplicons were quantified using PicoGreen (Invitrogen) and a plate reader. Once quantified, different volumes of each of the products were pooled into a single tube so that each amplicon was represented equally. This pool was then cleaned up using UltraClean® PCR Clean-Up Kit (MoBIO), and quantified using the Qubit (Invitrogen). After quantification, the molarity of the pool was determined and diluted down to 2 nM, denatured, and then diluted to a final concentration of […] with a 10% PhiX spike for sequencing on the Illumina MiSeq.
In total, 60 fecal samples, representing 20 samples for each time point (day 0, 15, and 28) with 10 samples for the control and treatment groups, respectively, were used for 16S rRNA gene amplicon sequencing using Illumina MiSeq with 151 bp paired-end sequencing technology. 16S rRNA gene PCR and library preparation and sequencing were completed at the Environmental Sample Preparation and Sequencing Facility at Argonne National Laboratory. Sequence analysis was performed using mothur version 1.39.3 following the mothur MiSeq SOP available at the mothur website. Briefly, contigs were joined with “make.contigs”, reads longer than 250 bp, harboring any ambiguous bases or with more than 8 consecutive homopolymers were excluded using “screen.seqs”. Reads were aligned to the SILVA NR128 reference database. Chimeric sequences were removed with “chimera.uchime” and the remaining reads were clustered into operational taxonomic units (OTUs) using a 97% similarity threshold and taxonomy was assigned to OTUs using the SILVA NR 128 reference database. […] For determination of differences between groups on community level, analysis of molecular variance (AMOVA) and analysis of similarity (ANOSIM) implemented in mothur were used. Heatmaps were generated with JColorGrid. For better taxonomic classification, the OTUs were searched against the 16S rRNA gene sequences of the Mouse Intestinal Bacterial Collection isolates (miBC) using BlastN.

[6] = biofilms established over 24 hours
[7] = concentrations higher than 0.625 mM

CCN(CC)c1ccc(C=Cc2cc[n+](C)cc2)cc1.[I-] [ASP^+, 4-(4-(diethylamino)styryl)-N-methylpyridinium iodide]
time of intracellular fluorescence decay after maximum ([1]; 6 hour biofilms, 37° C.): 2 to 3 h
time to maximum fluorescence intensity ([1]; 6 hour biofilms, 37° C.): < 60 min
residence time of probe in biofilm [1, 6]: > 6 h

CN(C)CCC=C1c2ccccc2CCc2ccccc21 [Amitriptyline, amitriptyline]
attenuation of ASP+ fluorophore uptake [2]: much stronger inhibitory effect
attenuation of IDT307 fluorophore uptake [3]: much stronger inhibitory effect

CN(C)c1ccc(-c2cc[n+](C)cc2)cc1.[I-] [IDT307, 4-[p-(Dimethylamino)phenyl]-1-methylpyridinium iodide]
time of intracellular fluorescence decay after maximum ([3]; 6 hour biofilms, 37° C.): 2 to 3 h
time to maximum fluorescence intensity ([3]; 6 hour biofilms, 37° C.): < 60 min
residence time of probe in biofilm [3, 6]: > 6 h

NC[C@H](O)c1ccc(O)c(O)c1 [NE, norepinephrine]
uptake of IDT307-associated fluorescence ([3]; 6 hour biofilms): markedly inhibited

CCN1/C(=C/c2ccc3ccccc3[n+]2CC)C=Cc2ccccc21.[I-] [decynium-22]
ability of the ASP+ fluorophore to enter into the cells (fluorescence) ([2]; 20 μM, 20 min pre-incubation, overnight biofilm, read 6 hours, all time points): reduced the ability of the ASP^+ fluorophore to enter into the cells
serotonin uptake through recombinant OCTs (recombinant OCTs): block serotonin uptake
serotonin uptake through recombinant PMAT (recombinant PMAT): block serotonin uptake
peak increase in IDT307 uptake ([3]; 20 μM, early (6 hour) biofilms): blunted
peak increase in ASP+ uptake ([1]; 20 μM, early (6 hour) biofilms): blunted

CNCC[C@H](Oc1cccc2ccccc12)c1cccs1 [duloxetine]
attenuation of ASP+ fluorophore uptake [2]: larger attenuation of fluorophore uptake
attenuation of IDT307 fluorophore uptake [4]: larger attenuation of fluorophore uptake
attenuation of IDT307 fluorophore uptake [3]: some attenuation
attenuation of ASP+ fluorophore uptake ([1]; 1 mg/ml, 24 hour biofilm): some attenuation

CNCCC(Oc1ccc(C(F)(F)F)cc1)c1ccccc1 (stereo not drawn) [fluoxetine]
overall effect on microbial communities [5]: shift of microbial communities towards dysbiosis
decrease of Lactobacillus OTU17 abundance under treatment ([5]; fecal samples): 7.4 fold
number of OTUs different between control and fluoxetine group ([5]; fecal samples): 121 OTUs
species richness and diversity estimators vs control group ([5]; fecal samples): No statistical significant differences
abundance of Firmicutes relative to Bacteroidetes ([5]; phylum level): trended (p=0.08) to be more abundant than Bacteroidetes
whole community level comparison with control (AMOVA and ANOSIM) ([5]; p=0.02 and p=0.05): statistically significant differences
inhibition of IDT307 uptake ([3]; concentrations below 0.625 mM): concentration-dependent inhibition
inhibition of IDT307 uptake [3, 7]: total inhibition
inhibition of ASP+ uptake ([1]; concentrations below 0.625 mM): concentration-dependent inhibition
inhibition of ASP+ uptake [1, 7]: total inhibition

NCCc1c[nH]c2ccc(O)cc12 [serotonin]
uptake of IDT307-associated fluorescence ([3]; 6 hour biofilms): markedly inhibited

O=NO [sodium nitrite]
uptake of IDT307-associated fluorescence ([3]; 6 hour biofilms): inhibited the rapid rise in IDT307-associated fluorescence
